Experimental data as given in US8241607B2, “Use of fructose-based compounds for the diagnosis of cancer” (priority 2005, dated 2012).
“Also recorded” adds a separate entry of the source.

System: PANC-1 cells
Experiment: Inhibition of PANC-1 proliferation by oxythiamine (MTS assay)
Format: cell-based
Conditions: oxythiamine 0.5 mM, 72 h
Experimental: FIG. 35 depicts inhibition of pancreatic cancer PANC-1 cell proliferation by incubation with the transketolase inhibitor, oxythiamine (0.5-2 mM) for 72 h in accordance with an embodiment of the present invention. Proliferative rates were measured using the MTS proliferation assay.
The inventors believe that fructose-treatment of pancreatic cancer cells led to an increase in TKK-driven nucleic acid synthesis, and thus fructose-treatment would result in an increase in either PANC-1 TKK expression and/or activity in comparison to equivalent glucose concentrations. Western blot analysis on protein lysates derived from fructose-, and glucose-treated PANC-1 cells were performed (5.5 mM fructose, and glucose for 24, and 48 h as per previous protocol) using a specific TKK antibody, and compared TKK expression in the fructose-, and glucose-treated PANC-1 cells. As depicted in FIG. 33, TKK expression at 24 h, and 48 h in protein lysates derived from 5.5 mM glucose-treated PANC-1 cells was increased in comparison to expression in 2 mM glucose-treated cells. […] After gentle mixing the absorbance of the mixture was measured at 10 min intervals for 2 h at 340 nm. Transketolase activity was then derived from the difference in absorbance at 10, and 80 minutes, and expressed as nmol/min/million cells. […] Pancreatic cancer proliferation rates were then measured using the MTS assay (FIG. 35). […]

SMILES: Cc1ncc(C[n+]2csc(CCO)c2C)c(=O)[nH]1 [oxythiamine]
- effect on fructose-mediated increase in pancreatic cancer cell proliferation (5.5 mM fructose): virtually abolished; also recorded: almost completely abrogate
- effect on glucose-induced and fructose-induced PANC-1 proliferation: inhibited glucose-induced and fructose-induced PANC-1 proliferation
